ChEMBL document CHEMBL1136901, “Crown-capped imidacloprid: a novel design and insecticidal activity” (Bioorg Med Chem Lett, 2009)

Legend:
Musca domestica [1] = assay: Insecticidal activity against Musca domestica Takatsuki assessed as mortality injected into thorax measured after 24 hrs; format: functional
Musca domestica [2] = assay: Toxicity against Musca domestica Takatsuki assessed as neurological side effects at 1100 ng; format: functional, organism-based
Musca domestica [3] = assay: Insecticidal activity against Musca domestica Takatsuki in presence of metabolic inhibitor propyl 2-propynyl phenylphosphate; format: functional
[4] = Octanol-water partition coefficient, log P of the compound; format: physicochemical
Musca domestica [5] = assay: Insecticidal activity against Musca domestica Takatsuki assessed as mortality at 15 ug applied topically; format: functional

O=[N+]([O-])/N=C1\NCCN1Cc1ccc(Cl)nc1 [IMIDACLOPRID]
LD50 (Musca domestica [1]): 84 ng

c1ccc2c(c1)OCCOCCOCCOCCOCCO2
Activity (Musca domestica [2]): Not toxic

c1ccc2c(c1)OCCOCCOCCOCCO2
Activity (Musca domestica [2]): Not toxic

O=[N+]([O-])/N=C1\N(Cc2ccc(Cl)nc2)CCN1Cc1ccc2c(c1)OCCOCCOCCOCCOCCO2
Activity (Musca domestica [3]): 4.3 ng | LD50 (Musca domestica [1]): 17 ng | logP [4]: 0.28 | Activity (Musca domestica [5]): 38%

O=[N+]([O-])/N=C1\N(Cc2ccc(Cl)nc2)CCN1Cc1ccc2c(c1)OCCOCCOCCOCCO2
Activity (Musca domestica [3]): 4.8 ng | LD50 (Musca domestica [1]): 25 ng | logP [4]: 0.15 | Activity (Musca domestica [5]): 44%
